Data from ChEMBL document CHEMBL4613266, “Discovery and Structure Relationships of Salicylanilide Derivatives as Potent, Non-acidic P2X1 Receptor Antagonists” (J Med Chem, 2020).
Activity calls are given as the source filed them. The calls are words filed in the database; no cut-off is given here.

Tests used:
Type in all cases: cell-based
[1] = molecular target: T1, P2X purinoceptor 1 (Homo sapiens) (UniProt P51575); experiment: Negative allosteric modulator activity at non-desensitizing human P2X1 receptor ( P2X2/P2X1 chimera) expressed in human 1321N1 cells assessed as inhibition of maximal response for ATP-induced calcium influx at 100 to 500 nM pre-incubated for 30 mins before ATP stimulation by FLIPR assay relative to control
T1 sequence (whole entry): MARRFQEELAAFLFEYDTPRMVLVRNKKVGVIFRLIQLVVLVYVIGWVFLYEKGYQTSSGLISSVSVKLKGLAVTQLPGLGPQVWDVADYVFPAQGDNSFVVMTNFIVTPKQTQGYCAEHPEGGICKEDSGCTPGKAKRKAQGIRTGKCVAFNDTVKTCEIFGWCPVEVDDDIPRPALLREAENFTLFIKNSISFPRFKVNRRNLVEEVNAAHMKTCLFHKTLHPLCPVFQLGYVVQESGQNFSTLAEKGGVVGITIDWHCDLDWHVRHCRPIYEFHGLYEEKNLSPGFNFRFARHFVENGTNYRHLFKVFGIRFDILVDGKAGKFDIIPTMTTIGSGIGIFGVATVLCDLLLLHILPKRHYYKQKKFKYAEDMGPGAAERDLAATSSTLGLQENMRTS

[2] = molecular target: T2, P2X purinoceptor 2 (Homo sapiens, UniProt Q9UBL9); experiment: Antagonist activity at human P2X2 receptor expressed in human 1321N1 cells assessed as inhibition of ATP-induced cytosolic calcium influx preincubated for 30 mins followed by ATP addition by Fluo-4 AM dye-based fluorescence assay
T2 sequence (Q9UBL9 whole entry): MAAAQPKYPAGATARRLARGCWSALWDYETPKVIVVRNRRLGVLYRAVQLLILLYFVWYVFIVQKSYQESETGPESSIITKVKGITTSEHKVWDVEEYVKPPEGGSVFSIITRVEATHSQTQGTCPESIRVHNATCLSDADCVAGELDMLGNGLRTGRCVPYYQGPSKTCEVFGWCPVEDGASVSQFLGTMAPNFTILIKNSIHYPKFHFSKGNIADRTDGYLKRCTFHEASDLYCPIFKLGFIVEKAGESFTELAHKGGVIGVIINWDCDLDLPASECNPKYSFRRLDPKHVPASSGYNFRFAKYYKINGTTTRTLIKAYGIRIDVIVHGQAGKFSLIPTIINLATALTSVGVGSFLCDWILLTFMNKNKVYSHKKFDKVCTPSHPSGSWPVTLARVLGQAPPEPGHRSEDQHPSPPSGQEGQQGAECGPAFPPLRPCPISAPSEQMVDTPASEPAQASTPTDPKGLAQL

[3] = molecular target: T3, P2X purinoceptor 4 (Homo sapiens, UniProt Q99571); experiment: Antagonist activity at human P2X4 receptor expressed in human 1321N1 cells assessed as inhibition of ATP-induced cytosolic calcium influx preincubated for 30 mins followed by ATP addition by Fluo-4 AM dye-based fluorescence assay
T3 sequence (Q99571 whole entry): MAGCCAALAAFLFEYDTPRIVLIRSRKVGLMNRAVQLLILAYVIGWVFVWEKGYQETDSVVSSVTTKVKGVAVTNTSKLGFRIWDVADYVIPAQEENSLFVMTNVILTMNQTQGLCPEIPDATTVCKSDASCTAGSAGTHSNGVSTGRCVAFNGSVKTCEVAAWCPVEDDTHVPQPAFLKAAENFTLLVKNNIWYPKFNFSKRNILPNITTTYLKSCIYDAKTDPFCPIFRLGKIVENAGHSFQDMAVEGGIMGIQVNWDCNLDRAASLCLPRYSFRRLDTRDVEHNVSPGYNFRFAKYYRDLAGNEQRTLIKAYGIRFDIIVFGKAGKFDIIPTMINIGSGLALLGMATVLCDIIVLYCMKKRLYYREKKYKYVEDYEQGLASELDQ

[4] = molecular target: T4, P2X purinoceptor 3 (Homo sapiens, UniProt P56373); experiment: Antagonist activity at human P2X3 receptor expressed in human 1321N1 cells assessed as inhibition of ATP-induced cytosolic calcium influx preincubated for 30 mins followed by ATP addition by Fluo-4 AM dye-based fluorescence assay
T4 sequence (P56373 whole entry): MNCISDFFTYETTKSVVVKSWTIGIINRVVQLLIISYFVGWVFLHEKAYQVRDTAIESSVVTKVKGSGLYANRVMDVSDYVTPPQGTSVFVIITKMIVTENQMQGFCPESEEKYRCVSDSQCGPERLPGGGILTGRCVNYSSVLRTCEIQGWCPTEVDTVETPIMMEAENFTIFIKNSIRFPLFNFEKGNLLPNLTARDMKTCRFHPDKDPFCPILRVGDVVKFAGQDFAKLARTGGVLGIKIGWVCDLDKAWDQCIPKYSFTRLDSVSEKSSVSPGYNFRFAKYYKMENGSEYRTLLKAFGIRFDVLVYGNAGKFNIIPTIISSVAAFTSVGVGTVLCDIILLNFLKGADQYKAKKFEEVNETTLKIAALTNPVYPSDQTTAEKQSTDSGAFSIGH

[5] = molecular target: T5, P2X purinoceptor 2 (Homo sapiens) (UniProt Q9UBL9); experiment: Antagonist activity at human P2X2 receptor expressed in human 1321N1 cells assessed as inhibition of ATP-induced cytosolic calcium influx at 10 uM preincubated for 30 mins followed by ATP addition by Fluo-4 AM dye-based fluorescence assay relative to control
T5 sequence (whole entry): T2 sequence (Q9UBL9 whole entry)

[6] = molecular target: P2X purinoceptor 1 (Homo sapiens, UniProt P51575); experiment: (§1) Antagonist activity at non-desensitizing human P2X1 receptor ( P2X2/P2X1 chimera) expressed in human 1321N1 cells assessed as inhibition of ATP-induced calcium influx pre-incubated for 30 mins before ATP stimulation by FLIPR assay relative to control
[7] = molecular target: T1, P2X purinoceptor 1 (Homo sapiens); experiment: as §1
[8] = molecular target: T1, P2X purinoceptor 1 (Homo sapiens); experiment: Antagonist activity at non-desensitizing human P2X1 receptor ( P2X2/P2X1 chimera) expressed in human 1321N1 cells assessed as inhibition of ATP-induced calcium influx at 1 uM pre-incubated for 30 mins before ATP stimulation by FLIPR assay relative to control
[9] = molecular target: T1, P2X purinoceptor 1 (Homo sapiens); experiment: Antagonist activity at non-desensitizing human P2X1 receptor ( P2X2/P2X1 chimera) expressed in human 1321N1 cells assessed as inhibition of ATP-induced calcium influx at 10 uM pre-incubated for 30 mins before ATP stimulation by FLIPR assay relative to control
[10] = molecular target: T6, P2X purinoceptor 7 (Homo sapiens, UniProt Q99572); experiment: Antagonist activity at human P2X7 receptor expressed in human 1321N1 cells assessed as inhibition of ATP-induced cytosolic calcium influx preincubated for 30 mins followed by ATP addition by Fluo-4 AM dye-based fluorescence assay
T6 sequence (Q99572 whole entry): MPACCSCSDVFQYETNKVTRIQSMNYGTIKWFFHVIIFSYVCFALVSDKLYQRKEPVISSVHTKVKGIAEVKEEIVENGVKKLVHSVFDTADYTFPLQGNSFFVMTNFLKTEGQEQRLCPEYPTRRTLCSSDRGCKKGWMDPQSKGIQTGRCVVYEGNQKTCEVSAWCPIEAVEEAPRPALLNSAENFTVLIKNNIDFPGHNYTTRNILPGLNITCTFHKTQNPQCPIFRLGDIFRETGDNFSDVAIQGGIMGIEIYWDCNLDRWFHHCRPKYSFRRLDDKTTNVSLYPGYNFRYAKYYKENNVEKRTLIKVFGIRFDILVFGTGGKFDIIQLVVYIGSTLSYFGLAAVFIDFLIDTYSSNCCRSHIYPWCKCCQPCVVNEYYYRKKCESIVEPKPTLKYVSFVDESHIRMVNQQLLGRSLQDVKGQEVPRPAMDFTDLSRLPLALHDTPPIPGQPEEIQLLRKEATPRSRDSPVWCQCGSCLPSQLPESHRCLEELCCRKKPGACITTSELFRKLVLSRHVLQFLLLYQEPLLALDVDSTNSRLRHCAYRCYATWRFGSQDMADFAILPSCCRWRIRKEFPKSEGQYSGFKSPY

[11] = molecular target: T7, P2X purinoceptor 3 (Homo sapiens) (UniProt P56373); experiment: Antagonist activity at human P2X3 receptor expressed in human 1321N1 cells assessed as inhibition of ATP-induced cytosolic calcium influx at 10 uM preincubated for 30 mins followed by ATP addition by Fluo-4 AM dye-based fluorescence assay relative to control
T7 sequence (whole entry): T4 sequence (P56373 whole entry)

[12] = molecular target: T1, P2X purinoceptor 1 (Homo sapiens); experiment: Antagonist activity P2X1 receptor in Apyrase pre-treated human platelets assessed as inhibition of TRAP6-induced platelet aggregation pre-incubated for 30 mins before TRAP6 stimulation by aggregometry relative to control
[13] = molecular target: T1, P2X purinoceptor 1 (Homo sapiens); experiment: Antagonist activity P2X1 receptor in Apyrase pre-treated human platelets assessed as inhibition of collagen-induced platelet aggregation pre-incubated for 30 mins before collagen stimulation by aggregometry relative to control
[14] = molecular target: T1, P2X purinoceptor 1 (Homo sapiens); experiment: Antagonist activity P2X1 receptor in human platelets assessed as inhibition of ADP-induced platelet aggregation pre-incubated for 30 mins before ADP stimulation by aggregometry relative to control
[15] = molecular target: T8, P2X purinoceptor 4 (Homo sapiens) (UniProt Q99571); experiment: Antagonist activity at human P2X4 receptor expressed in human 1321N1 cells assessed as inhibition of ATP-induced cytosolic calcium influx at 10 uM preincubated for 30 mins followed by ATP addition by Fluo-4 AM dye-based fluorescence assay relative to control
T8 sequence (whole entry): T3 sequence (Q99571 whole entry)

Row | SMILES | inhibition [1] | IC50 [2] [µM] | IC50 [3] [µM] | IC50 [4] [µM] | inhibition [5] [%] | IC50 [6] [µM] | inhibition [7] | inhibition [8] [%] | inhibition [9] [%] | IC50 [10] [µM] | inhibition [11] [%] | inhibition [12] [%] | inhibition [13] [%] | inhibition [14] [%] | inhibition [15] [%]
1 | O=C(Nc1cc(C(F)(F)F)cc(C(F)(F)F)c1)c1cc(Cl)ccc1O [IMD-0354] | Active | > 10 | 0.156 | > 10 | -7 | 0.0192 | Dose-dependent effect | > 40 | > 75 | 0.175 | 11 |  |  |  | 
2 | O=C(Nc1cc(F)cc(F)c1)c1cc(Cl)ccc1O |  | > 10 | 0.155 | > 10 | 4 | 0.0505 |  |  | 62 | 0.16 | 2 | 5 | 47 | 14 | 
3 | O=C(Nc1cc(C(F)(F)F)cc(C(F)(F)F)c1)c1cccc(F)c1O | Active | > 10 | ≥ 10 | > 10 |  | 0.0706 |  |  | 80 | 0.857 | 38 |  |  |  | 49
